Measured values: patent publication US12312328B2, “Pyrazoline dihydroquinolones, pharmaceutical compositions, and uses” (Emory University, priority 2013, dated 2025)
pIC50, pKd, pKi: −log10 of the molar value.

Columns and labels:
[1] = Human liver microsomal stability; format: in vitro ADME; conditions: 60 minute assay
Description: Human liver microsomes were obtained from XenoTech. The reaction mixture was prepared with 0.5 mg/mL human liver microsomes, 100 mM potassium phosphate (pH 7.4), 5 mM magnesium chloride, 1 μM test compound. The reaction mixture was incubated in a shaking water bath at 37° C. for 3 minutes prior to the addition of NADPH (1 mM). Testosterone was run simultaneously in a separate vessel as a control. 100 μl aliquots were taken at 0, 10, 20, 30 and 60 minutes for both test compound and testosterone. The aliquots were combined immediately with 400 μl of ice cold 50/50 ACN/dH2O containing 0.1% formic acid and internal standard to terminate the reaction. The samples were then mixed and centrifuged to precipitate microsomal proteins. All samples were assayed by LC-MS/MS using electrospray ionization and multiple reaction monitoring and the peak area responses to internal standard of the compounds at each time point was compared to the peak area response at time 0 to determine the percent compound remaining. The human liver microsomal stability assays were performed by Absorption Systems.

kappa-opioid = target: T1, kappa-opioid (Homo sapiens, UniProt P41145); experiment: NIMH PDSP Ki determination, kappa-opioid; format: binding
T1 construct: NIMH PDSP (screening programme)
Description: (§1) The actions of these two compounds at 5 μM on were tested 42 different ion channels, G-protein coupled receptors, and transporters via the National Institutes of Mental Health (NIMH) psychoactive drug screening program (PDSP).

[2] = system: MDR1-MDCK cell monolayers; experiment: MDR1-MDCK permeability assay; format: in vitro ADME; conditions: MDR1-MDCK, 5 μM, 120 minutes
Description: The Papp and efflux ratio were calculated as described in the Methods. […] See Wang et al., International Journal of Pharmaceutics, 2005, 288, 349-359.
Cell monolayers were grown to confluence on collagen-coated, microporous, polycarbonate membranes in 12-well Costar Transwell® plates. The permeability assay buffer was Hanks Balanced Salt Solution containing 10 mM HEPES and 15 mM glucose at pH 7.4. The buffer in the receiver chamber also contained 1% bovine serum albumin. The dosing solution concentration in the assay buffer was 5 μM for each compound tested. The cell monolayers were dosed on the apical side (A-to-B) or basolateral side (B-to-A) and incubated at 37° C. with 5% CO2 in a humidified incubator. Samples were taken from the donor and receiver chambers at 120 minutes. Each determination was performed in duplicate. The co-dosed lucifer yellow flux was also measured for each monolayer to ensure no damage was inflicted to the cell monolayers during the flux period. All samples were assayed by LC-MS/MS using electrospray ionization. The apparent permeability (Papp) and percent recovery were calculated as follows. […] Human Liver Microsomal Stability

Plasma stability, rat = format: in vitro ADME; conditions: two-hour time-course
Description: (§2) Three analogs, (58) 997-33, (26)997-23 and (64) 997-57 were evaluated for plasma stability as well as aqueous solubility. […] The aqueous solubility of compounds (26)997-23 and (58) 997-33 was evaluated in oocyte recording buffer using nephelometry. […] In order to assess the potential BBB penetration, compounds (26)997-23 and (64)997-57 were selected for evaluation in the MDR1-MDCK permeability assay (FIG. 19). […] The same compounds were also evaluated for metabolic stability using human liver microsomes.

[3] = Aqueous solubility in oocyte recording buffer by nephelometry; format: physicochemical
Description: as §2

Plasma stability, mouse = format: in vitro ADME; conditions: two-hour time-course
Description: as §2

H2 = target: T2, H2 (Homo sapiens, UniProt P25021); experiment: NIMH PDSP Ki determination, H2; format: binding
T2 construct: NIMH PDSP (screening programme)
Description: as §1

Plasma stability, human = format: in vitro ADME; conditions: two-hour time-course
Description: as §2

5-HT6 = target: T3, 5-HT6 (Homo sapiens, UniProt P50406); experiment: NIMH PDSP Ki determination, 5-HT6; format: binding
T3 construct: NIMH PDSP (screening programme)
Description: as §1

[4] = system: GluN2D receptor mutants Q801Y, L705F and A752V; experiment: Inhibition of mutant GluN2D receptors (Q801Y, L705F and A752V); format: cell-based; conditions: racemic mixture, A752V versus wild type
Description: Mutations to the wild type GluN2D receptor (Q801Y, L705F and A752V) were described to decrease sensitivity of the GluN2D receptor to blockade by either DQP-1105 and/or QNZ-46 in the membrane proximal region of the bilobed ligand binding domain encoded by the S2 region of the polypeptide chain were evaluated. See Acker et al. and Hansen & Traynelis, J Neurosci, 2011, 31, 3650-3661.

[5] = system: 42 different ion channels, G-protein coupled receptors, and transporters; experiment: NIMH PDSP primary binding assay; conditions: 5 μM compound
Description: as §1

GluN1/GluN2D receptors = GluN1/GluN2D receptors (Rattus norvegicus, UniProt P35439+Q62645); experiment: Whole-cell patch clamp recordings of GluN1/GluN2D receptors expressed in HEK293 cells; format: cell-based
GluN1/GluN2D = GluN1/GluN2D (Rattus norvegicus, UniProt Q62645); experiment: Inhibition of GluN1/GluN2D responses: dependence on agonist concentration and on voltage; format: cell-based; conditions: 1 μM compound
Excerpt: Although it is not intended that embodiments of this disclosure be limited by any mechanism, Acker et al. report a mechanism for noncompetitive inhibition by GluN2C/D N-methyl-d-aspartate receptor subunit-selective modulators. Molecular Pharmacology 2011, 80, 782-795.

mu-opioid = target: T4, mu-opioid (Homo sapiens, UniProt P35372); experiment: NIMH PDSP Ki determination, mu-opioid; format: binding
T4 construct: NIMH PDSP (screening programme)
Description: as §1

5-HT1E = target: T5, 5-HT1E (Homo sapiens, UniProt P28566); experiment: NIMH PDSP Ki determination, 5-HT1E; format: binding
T5 construct: NIMH PDSP (screening programme)
Description: as §1

Sequence of GluN1/GluN2D (Q62645 28-1323, other chains not shown): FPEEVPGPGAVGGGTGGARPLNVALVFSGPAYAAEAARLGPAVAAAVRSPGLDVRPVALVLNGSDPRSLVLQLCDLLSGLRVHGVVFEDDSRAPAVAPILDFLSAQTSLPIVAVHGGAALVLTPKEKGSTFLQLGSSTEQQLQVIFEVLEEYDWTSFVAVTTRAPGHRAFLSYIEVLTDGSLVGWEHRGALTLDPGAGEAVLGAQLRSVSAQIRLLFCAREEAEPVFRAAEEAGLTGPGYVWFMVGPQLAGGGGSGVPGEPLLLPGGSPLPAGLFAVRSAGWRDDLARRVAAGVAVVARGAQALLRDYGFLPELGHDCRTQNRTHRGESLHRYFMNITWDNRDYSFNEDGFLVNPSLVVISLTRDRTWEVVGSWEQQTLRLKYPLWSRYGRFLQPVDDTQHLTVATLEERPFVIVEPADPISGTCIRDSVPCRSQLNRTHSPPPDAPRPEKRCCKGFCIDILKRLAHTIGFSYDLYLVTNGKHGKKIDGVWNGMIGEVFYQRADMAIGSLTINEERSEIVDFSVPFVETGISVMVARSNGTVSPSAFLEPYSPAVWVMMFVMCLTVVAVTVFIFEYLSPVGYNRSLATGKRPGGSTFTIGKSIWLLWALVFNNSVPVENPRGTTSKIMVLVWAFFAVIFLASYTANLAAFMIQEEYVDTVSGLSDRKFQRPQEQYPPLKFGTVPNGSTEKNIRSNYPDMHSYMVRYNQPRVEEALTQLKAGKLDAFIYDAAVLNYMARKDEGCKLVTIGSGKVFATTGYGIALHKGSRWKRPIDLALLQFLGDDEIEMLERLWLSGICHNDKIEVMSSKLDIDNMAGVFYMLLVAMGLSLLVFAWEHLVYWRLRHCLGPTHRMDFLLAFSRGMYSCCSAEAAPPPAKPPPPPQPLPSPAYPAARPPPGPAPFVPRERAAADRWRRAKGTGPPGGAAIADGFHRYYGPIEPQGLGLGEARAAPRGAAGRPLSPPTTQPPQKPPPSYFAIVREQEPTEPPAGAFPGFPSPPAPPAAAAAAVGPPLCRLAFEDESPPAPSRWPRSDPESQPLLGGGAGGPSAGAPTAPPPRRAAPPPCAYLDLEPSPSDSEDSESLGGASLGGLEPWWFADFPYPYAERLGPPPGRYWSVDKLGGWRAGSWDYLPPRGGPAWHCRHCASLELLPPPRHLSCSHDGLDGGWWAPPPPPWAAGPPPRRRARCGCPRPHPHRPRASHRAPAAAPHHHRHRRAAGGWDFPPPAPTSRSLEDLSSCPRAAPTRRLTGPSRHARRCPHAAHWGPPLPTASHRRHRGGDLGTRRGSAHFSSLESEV
Sequence of GluN1/GluN2D receptors (Q62645 28-1323, other chains not shown): as above
T3 sequence (P50406 whole entry, species assumed): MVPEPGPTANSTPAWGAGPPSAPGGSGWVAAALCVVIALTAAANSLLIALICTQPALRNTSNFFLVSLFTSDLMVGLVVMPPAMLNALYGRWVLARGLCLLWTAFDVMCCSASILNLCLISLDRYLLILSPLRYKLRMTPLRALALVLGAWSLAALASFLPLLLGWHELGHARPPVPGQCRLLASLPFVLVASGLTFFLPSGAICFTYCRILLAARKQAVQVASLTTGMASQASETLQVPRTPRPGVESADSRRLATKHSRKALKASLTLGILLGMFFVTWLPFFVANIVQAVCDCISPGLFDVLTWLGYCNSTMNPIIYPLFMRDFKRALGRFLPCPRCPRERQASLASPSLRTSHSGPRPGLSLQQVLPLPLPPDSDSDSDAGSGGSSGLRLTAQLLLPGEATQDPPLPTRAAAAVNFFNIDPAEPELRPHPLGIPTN
T1 sequence (P41145 whole entry): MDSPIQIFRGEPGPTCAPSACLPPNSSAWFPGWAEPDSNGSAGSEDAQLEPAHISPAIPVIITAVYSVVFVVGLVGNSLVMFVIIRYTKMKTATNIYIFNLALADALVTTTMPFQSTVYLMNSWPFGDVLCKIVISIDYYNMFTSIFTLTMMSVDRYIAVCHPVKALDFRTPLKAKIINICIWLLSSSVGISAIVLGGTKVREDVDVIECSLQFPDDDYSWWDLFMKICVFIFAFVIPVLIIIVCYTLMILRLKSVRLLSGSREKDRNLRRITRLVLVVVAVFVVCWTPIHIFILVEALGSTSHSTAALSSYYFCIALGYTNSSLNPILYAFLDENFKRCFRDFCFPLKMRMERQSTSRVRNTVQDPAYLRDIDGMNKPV
T4 sequence (P35372 whole entry): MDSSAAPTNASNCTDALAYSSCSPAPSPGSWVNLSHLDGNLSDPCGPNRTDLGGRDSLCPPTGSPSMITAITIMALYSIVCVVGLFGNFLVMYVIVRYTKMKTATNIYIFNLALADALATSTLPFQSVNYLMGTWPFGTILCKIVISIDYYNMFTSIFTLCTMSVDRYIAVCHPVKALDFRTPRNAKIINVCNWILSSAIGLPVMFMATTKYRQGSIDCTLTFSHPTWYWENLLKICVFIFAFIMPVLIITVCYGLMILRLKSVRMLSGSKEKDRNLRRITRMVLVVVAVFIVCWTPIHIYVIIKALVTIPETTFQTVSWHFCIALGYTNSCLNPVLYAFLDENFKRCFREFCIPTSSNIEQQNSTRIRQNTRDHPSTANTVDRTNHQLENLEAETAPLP
T5 sequence (P28566 whole entry, species assumed): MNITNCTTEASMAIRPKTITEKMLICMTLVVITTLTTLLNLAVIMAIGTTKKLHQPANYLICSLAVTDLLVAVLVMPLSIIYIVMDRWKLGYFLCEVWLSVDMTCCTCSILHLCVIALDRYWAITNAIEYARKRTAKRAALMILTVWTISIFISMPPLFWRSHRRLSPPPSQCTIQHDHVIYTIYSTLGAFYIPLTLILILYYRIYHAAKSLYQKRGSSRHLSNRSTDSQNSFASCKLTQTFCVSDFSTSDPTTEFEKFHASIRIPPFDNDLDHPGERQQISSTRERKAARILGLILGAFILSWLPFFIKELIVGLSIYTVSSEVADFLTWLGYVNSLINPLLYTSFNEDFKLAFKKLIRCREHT
T2 sequence (P25021 whole entry): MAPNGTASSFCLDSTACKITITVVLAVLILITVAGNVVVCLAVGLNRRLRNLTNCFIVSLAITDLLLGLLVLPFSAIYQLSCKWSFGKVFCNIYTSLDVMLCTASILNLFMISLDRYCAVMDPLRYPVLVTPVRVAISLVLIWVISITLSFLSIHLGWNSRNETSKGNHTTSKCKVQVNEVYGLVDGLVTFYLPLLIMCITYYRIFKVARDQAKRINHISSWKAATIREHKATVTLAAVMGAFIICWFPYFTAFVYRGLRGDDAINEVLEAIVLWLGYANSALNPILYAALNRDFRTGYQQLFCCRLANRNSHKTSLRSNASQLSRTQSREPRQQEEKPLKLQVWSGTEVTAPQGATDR

degradation in human liver microsomes, in words [1]	pKi (kappa-opioid)	Papp A-B [2] [×10⁻⁶ cm/s]	plasma stability (Plasma stability, rat)	solubility [3] [µM]	plasma stability (Plasma stability, mouse)	pKi (H2)	plasma stability (Plasma stability, human)	pKi (5-HT6)	effect on receptors and transporters in primary binding assay [5]	pIC50 (GluN1/GluN2D receptors; HEK293 cells, n=4, read-out: IC50 for inhibition of the response under whole-cell voltage clamp)	pKd (GluN1/GluN2D receptors; calculated from kOFF and kON, read-out: dissociation constant KD)	GluN1/GluN2D response remaining (GluN1/GluN2D; 30 μM glutamate and glycine, n=6)	GluN1/GluN2D response remaining (GluN1/GluN2D; 3 mM glutamate and glycine, n=6)	GluN1/GluN2D response remaining (GluN1/GluN2D; +30 mV, n=8)	GluN1/GluN2D response remaining (GluN1/GluN2D; −40 mV, n=8)	pKi (mu-opioid)	pKi (5-HT1E)	SMILES	effect of GluN2D mutations on degree of inhibition [4]
minimal degradation	< 5.00	0.47	minimal degradation	> 80	minimal degradation	< 5.00	minimal degradation	< 5.00	minimal effect									O=C(O)CCC(=O)N1N=C(c2c(-c3ccc(Cl)cc3)c3ccccc3[nH]c2=O)CC1c1ccc(Cl)cc1 (racemic) [Compound 997-23, 4-(5-(4-Chlorophenyl)-3-(4-(4-chlorophenyl)-2-oxo-1,2-dihydroquinolin-3-yl)-4,5-dihydro-1H-pyrazol-1-yl)-4-oxobutanoic acid]	significantly reduced the degree of inhibition
	< 5.00		minimal degradation	> 80	minimal degradation		minimal degradation	< 5.00	minimal effect	6.00	6.00	4.1 ± 0.58 % of control	3.1 ± 0.50 % of control	4.8+1.2 % of control	4.9 ± 1.3 % of control	< 5.00	< 5.00	O=C(O)/C=C/C(=O)N1N=C(c2c(-c3ccc(Br)cc3)c3ccccc3[nH]c2=O)CC1c1ccc(Cl)cc1 (racemic) [Compound 997-33, (E)-4-(3-(4-(4-Bromophenyl)-2-oxo-1,2-dihydroquinolin-3-yl)-5-(4-chlorophenyl)-4,5-dihydro-1H-pyrazol-1-yl)-4-oxobut-2-enoic acid]	
